Patent US20260364124A1, “ANTI-C. DIFFICILE SMALL MOLECULE METABOLITES FROM DIET AND GUT MICROBIOME” (The Children's Medical Center Corporation, priority 2023, published 2026)
Entries after “also recorded” stand apart in the source; their conditions may differ.

Tested on: C. difficile M7404
Assay: In vitro polydatin bioactivation and C. difficile antagonism by conditioned (spent) media of B. uniformis WT
Type: cell-based, Clostridioides difficile
Conditions: polydatin 500 μM, 1/2-diluted, C. difficile M7404 growth 12 h (FIG. 5A)
Protocol: FIGS. 5A and 5B show microbiome-mediated polyphenol aglycone liberation. […] Step 2: Spent media was filter-sterilized. Step 3: C. difficile was grown in spent media from either vehicle or polydatin (top). […]
The experimental media consisted of a modified YCFA media (mYCFA; casitone (2.5 g/L), yeast extract (0.625 g/L), cysteine (0.5 g/L), magnesium sulfate heptahydrate (f.c. 365 μM), calcium chloride dihydrate (f.c. 610 μM), sodium bicarbonate (4 g/L), dipotassium phosphate (0.45 g/L), monopotassium phosphate (0.45 g/L), sodium chloride (0.9 g/L), sodium acetate (2.71 g/L), Hemin (50 mg/L), Vitamin K1 (0.25 mg/L), ferrous sulfate (4 μg/mL), and ATCC vitamin mix (1% v/v)) supplemented with glucose (15 mM, Sigma) plus ½-diluted B. uniformis WT or AgshD conditioned media from growth with or without polydatin. C. difficile growth was monitored by measuring the optical density at 600 nm (OD600) of each culture in a 384 well plate with an Epoch2 spectrophotometer (BioTek Instruments) for 12 hours.

Question: How did the “anti-C. difficile activity of conditioned media from B. uniformis WT grown with polydatin” value turn out when `OC[C@H]1O[C@@H](Oc2cc(O)cc(/C=C/c3ccc(O)cc3)c2)[C@H](O)[C@@H](O)[C@@H]1O` [polydatin] was run?
Answer: The value was “inhibited the growth of Clostridioides difficile in vitro; also recorded: generated potent anti-C.difficile activity”.
